The source of these data is paper PMC3261798, “Design, Synthesis, and Biological Evaluation of PKD Inhibitors” (Pharmaceutics, 2011).

In general, melting point refers to the temperature, or range, at which the solid turns liquid. One may read the IC50 as the concentration at which inhibition is half-maximal.

Structures can show the parent of a compound that is named as a salt. A value given as a limit tells only on which side of the number the result lay.

Series [1] addresses T1, PKD1 (Homo sapiens, UniProt Q15139).
T1 sequence (Q15139 1-912): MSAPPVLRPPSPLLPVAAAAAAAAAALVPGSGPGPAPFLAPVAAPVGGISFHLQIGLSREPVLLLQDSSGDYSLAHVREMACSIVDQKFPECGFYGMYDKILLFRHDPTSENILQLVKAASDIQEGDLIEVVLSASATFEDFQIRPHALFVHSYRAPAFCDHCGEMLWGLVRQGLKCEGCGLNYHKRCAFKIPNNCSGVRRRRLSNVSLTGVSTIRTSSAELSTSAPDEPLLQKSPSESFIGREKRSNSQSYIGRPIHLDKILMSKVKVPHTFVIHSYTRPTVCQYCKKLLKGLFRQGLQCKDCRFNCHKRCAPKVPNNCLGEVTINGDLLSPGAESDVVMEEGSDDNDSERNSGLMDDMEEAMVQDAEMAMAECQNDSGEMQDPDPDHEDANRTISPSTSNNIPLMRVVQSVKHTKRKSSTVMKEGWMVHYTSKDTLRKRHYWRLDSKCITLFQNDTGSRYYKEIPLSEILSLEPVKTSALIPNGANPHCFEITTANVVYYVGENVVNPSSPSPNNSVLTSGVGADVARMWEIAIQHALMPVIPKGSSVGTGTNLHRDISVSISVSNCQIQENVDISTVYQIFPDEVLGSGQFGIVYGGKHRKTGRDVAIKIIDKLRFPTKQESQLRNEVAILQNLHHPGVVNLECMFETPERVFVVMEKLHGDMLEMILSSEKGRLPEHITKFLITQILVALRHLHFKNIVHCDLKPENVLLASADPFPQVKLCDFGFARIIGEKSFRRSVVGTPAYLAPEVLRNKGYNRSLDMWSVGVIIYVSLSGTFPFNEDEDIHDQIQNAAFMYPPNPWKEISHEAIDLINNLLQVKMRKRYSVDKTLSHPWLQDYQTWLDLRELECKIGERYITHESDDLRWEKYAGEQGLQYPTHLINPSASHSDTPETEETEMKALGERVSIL
The series can be described thus: IMAP-based PKD Fluorescence Polarization (FP) assay, automated HTS format. The series is classed as biochemical. To be noted: mean ± SEM, n = number of independent experiments. On the procedure: An automated, HTS formatted IMAP-based PKD Fluorescence Polarization (FP) assay was used to assess the specificity of the PKD analogs as previously described. […] Kinase reactions were incubated for 90 min at room temperature and stopped by the addition of IMAP binding reagent. Assay plates were then incubated for 2 h and IMAP-based FP data were captured on a Molecular Devices Spectra-Max M5 (Sunnyvale, CA, USA).
On the technique in general: Polarisation of emitted light reports the rotation of a fluorescent probe.

The target of series [2] is T1, PKD1. Description: In vitro radiometric PKD kinase activity assay. The format is biochemical. Also noted: purchased Biomol International. To be noted: for IC50: read-out: IC50 Radiometric PKD1; for inhibitory activity against PKD (in words): preliminary biological data for kmg-NB5-13 and kmg-NB5-15. How it is done: In vitro radiometric PKD kinase assays were conducted as previously described. Briefly, 50 ng recombinant human PKD1 (Biomol International, Plymouth Meeting, PA, USA) was incubated at 30 °C for 10 min with a reaction mixture containing 2.5 μg syntide-2 (Sigma), 70 μM ATP, and 1 μCi γ-^32 P-ATP (PerkinElmer, Boston, MA, USA) in kinase buffer (50 mM Tris-HCl pH 7.5, […], and 10 mM […]). 25 μL of the reaction mixture was then spotted on Whatman P81 filter paper (Whatman Inc., Clifton, NJ, USA), and filter papers were washed three times with 0.5% phosphoric acid, dried, then counted using a Beckman LS6500 multi-purpose scintillation counter.

The mark [3] stands for this setting: mean ± SEM, n = number of independent experiments.

`CC(=O)Oc1ccc2oc3c(c2c1)CCCN(C(C)=O)C3=O` [kb-NB123-45-1, 2-Acetyl-1-oxo-2,3,4,5-tetrahydro-[1]benzoxolo[2,3-c]azepin-7-yl acetate] showed a melting point of 155 to 157 °C. Also, in series [1], the “IC50 IMAP-FP PKD1” value is given as “not inhibitory”.

On to `COc1ccc2oc3c(c2c1)CCCN(C)C3=O` [kb-NB96-04, 7-Methoxy-2-methyl-2,3,4,5-tetrahydro-[1]benzoxolo[2,3-c]azepin-1-one], for which the melting point was in the range of 150 to 151 °C. This compound also came in with an IC50 in series [1] above 100 µM.

As for `C=CCOc1ccc2oc3c(c2c1Cl)CCCNC3=O` [kb-NB96-50, 7-Allyloxy-6-chloro-2,3,4,5-tetrahydro-[1]benzoxolo[2,3-c]azepin-1-one], the melting point is 192 to 194 °C. Further, the “IC50 IMAP-FP PKD1” value in series [1] is “not inhibitory”.

`COc1ccc2sc3c(c2c1)SCCN(C)C3=O` [kb-NB165-16, 2,3-Dihydro-4-methyl-9-methoxy-[1]benzothieno[2,3-f]-1,4-thiazepin-5(2H)-one] gave a melting point of 160 to 161 °C. The IC50 in series [2] (setting [3]) was 4.57 ± 0.78 µM.

`Cc1ccc(S(=O)(=O)NN=C2CCNC(=O)c3oc4ccc(O)cc4c32)cc1` [kb-NB142-11, 7-Hydroxy-5-[2-{(4-methylphenyl)sulfony}hydrazono]-2,3,4,5-tetrahydro-[1]benzoxolo[2,3-c]azepin-1-one] came in with a melting point of 220 to 224 °C. For the same compound, the half-inhibitory concentration (IC50) in series [1] was 38.2 ± 1.17 µM.

Turning to `Oc1ccc2oc3c(c2c1)CCCN1CCN=C31` [kb-NB165-15, 9-Hydroxy-3,5,6,7-tetrahydro-2H-benzoxolo[2,3-c]imidazo[1,2-a]azepine], the melting point is 230 to 232 °C (dec.). Besides, the “IC50 Radiometric PKD1” value in series [2] (setting [3]) is reported as “not inhibitory”.

With `O=C1NCCSc2c1sc1ccc(OCc3ccccc3)cc21` [kb-NB123-66, 3,4-Dihydro-9-benzyloxy-[1]benzothieno[2,3-f]-1,4-thiazepin-5(2H)-one], the melting point was 247 to 249 °C. Further, in series [1], the “IC50 IMAP-FP PKD1” value is on record as “not inhibitory”.

Regarding `O=C(OCc1ccccc1)N1CCCc2c1c(=O)oc1ccc(O)cc21` [kb-NB77-91, Benzyl 9-hydroxy-5-oxo-1,2,3,4-tetrahydrochromeno[3,4-b]pyridine-4-carboxylate], the melting point lay in the range of 235 to 237 °C. Also, in series [1], the “IC50 IMAP-FP PKD1” value is “not inhibitory”.

Turning to `COc1nc(OC)c2sc3c(c2n1)SCCNC3=O` [kmg-NB5-13C, 2,4-Dimethoxy-7H,8H,9H-1,4-thiazepino[7′,6′-5,4]thiopheno[3,2-d]pyrimidin-6-one], the melting point was 288 °C (dec.). Also, the IC50 in series [2] (setting [3]) is above 30 µM. Also, the “inhibitory activity against PKD (in words)” value in series [2] is reported as “absence of inhibitory activity”.

Compound `CC(=O)Nc1ccc2[nH]c3c(c2c1)CCCNC3=O` [kb-NB123-94] had a melting point above 300 °C. Besides, the “IC50 IMAP-FP PKD1” value in series [1] is “not inhibitory”.

For `O=C1NCCCc2c1[nH]c1ccc(OCc3ccccc3)cc21` [kb-NB123-53, 3,4,5,10-Tetrahydro-7-benzyloxy-azepino[3,4-b]indol-1(2H)-one], the “IC50 IMAP-FP PKD1” value in series [1] is reported as “not inhibitory”.

For the compound `O=C1NCCC(=NOCc2ccccc2)c2c1oc1ccc(O)cc21` [kb-NB142-10, 5-(Benzyloxyimino)-7-hydroxy-2,3,4,5-tetrahydro-[1]benzoxolo[2,3-c]azepin-1-one], the melting point was in the range of 103 to 110 °C. The “IC50 IMAP-FP PKD1” value in series [1] is given as “not inhibitory”.

On to `O=C1NCCCc2c1oc1cc(Cl)c(O)c(Cl)c21` [kb-NB96-43, 6,8-Dichloro-7-hydroxy-2,3,4,5-tetrahydro-[1]benzoxolo[2,3-c]azepin-1-one], for which the melting point lay in the range of 298 to 301 °C. In addition, the “IC50 IMAP-FP PKD1” value in series [1] is reported as “not inhibitory”.

Take `O=c1oc2ccc(O)c(Cl)c2c2c1NCCC2` [kb-NB96-47-1, 10-Chloro-9-hydroxy-1,2,3,4-tetrahydrochromeno[3,4-b]pyridin-5-one]: the melting point lay in the range of 211 to 213 °C. Also, the “IC50 IMAP-FP PKD1” value in series [1] is listed as “not inhibitory”.

Take `CC(C)(C)[Si](C)(C)Oc1ccc2oc3c(c2c1)CCCNC3=O` [kb-NB77-77, 7-(tert-Butyldimethylsilyloxy)-2,3,4,5-tetrahydro-[1]benzoxolo[2,3-c]azepin-1-one]: the melting point was 209 to 212 °C. Besides, in series [1], the “IC50 IMAP-FP PKD1” value is listed as “not inhibitory”.

Compound `O=C1NCCCc2c1oc1cc(Cl)c(O)cc21` [kb-NB96-47-5, 8-Chloro-7-hydroxy-2,3,4,5-tetrahydro-[1]benzoxolo[2,3-c]azepin-1-one] returned a melting point of 327 to 332 °C.

`COc1ccc2oc3c(c2c1)CCNC3=O` [kb-NB123-32, 6-Methoxy-3,4-dihydrobenzoxolo[2,3-c]pyridin-1(2H)-one]: the melting point was 237 to 241 °C. Besides, the IC50 in series [1] is above 100 µM.

On to `O=C1NCCc2c1[nH]c1ccc(OCc3ccccc3)cc21` [kb-NB123-52, 2,3,4,9-Tetrahydro-6-benzyloxy-1H-pyrido[3,4-b]indol-1-one], for which the melting point was 208 to 210 °C. Besides, in series [1], the “IC50 IMAP-FP PKD1” value is on record as “not inhibitory”.

In the case of `CC(=O)Nc1ccc2[nH]c3c(c2c1)CCNC3=O` [kb-NB123-93, N-(2,3,4,9-Tetrahydro-1-oxo-1H-pyrido[3,4-b]indol-6-yl)-acetamide], the melting point is above 300 °C. The “IC50 IMAP-FP PKD1” value in series [1] is listed as “not inhibitory”.

In turn, `CN1CCCc2c(oc3ccc(O)cc23)C1=O` [kb-NB142-25, 7-Hydroxy-2-methyl-2,3,4,5-tetrahydro-[1]benzoxolo[2,3-c]azepin-1-one] had a melting point of 282 to 284 °C. Besides, the half-inhibitory concentration (IC50) in series [2] (setting [3]) is 4 ± 1.1 µM.

For `CN1CCSc2c(sc3ccc(O)cc23)C1=O` [kb-NB165-17, 2,3-Dihydro-4-methyl-9-hydroxy-[1]benzothieno[2,3-f]-1,4-thiazepin-5(2H)-one], the melting point lay within 265 to 268 °C. The half-maximal inhibitory concentration (IC50) in series [2] (setting [3]) was determined as 0.45 ± 0.05 µM.

With `CC(=O)Oc1ccc2oc3c(c2c1)CCCNC3=O` [kb-NB123-36, 7-Acetoxy-2,3,4,5-tetrahydro-[1]benzoxolo[2,3-c]azepin-1-one], the melting point was in the range of 196 to 197 °C. For the same compound, in series [1], the IC50 was determined as 84.9 ± 3.21 µM.

Compound `C=CCOc1ccc2oc(=O)c3c(c2c1)CCCN3` [kb-NB77-83, 9-Allyloxy-1,2,3,4-tetrahydrochromeno[3,4-b]pyridin-5-one] yielded a melting point of 90 to 91 °C. The “IC50 IMAP-FP PKD1” value in series [1] is “not inhibitory”.

With `O=C1NCCSc2c1sc1ccc(N=C=S)cc21` [mcf292-05, 3,4-Dihydro-9-isothiocyanato-[1]benzothieno[2,3-f]-1,4-thiazepin-5(2H)-one], the melting point is 253 to 253.3 °C. The IC50 in series [2] (setting [3]) stood at 2.77 µM.

Turning to `CC=Cc1c(O)ccc2oc3c(c12)CCCNC3=O` [kb-NB96-30, 6-[(E)-2-(Prop-1-enyl) ]-7-hydroxy-2,3,4,5-tetrahydro-[1]benzoxolo[2,3-c]azepin-1-one], the melting point was above 300 °C.

On to `COc1nc(O)c2sc3c(c2n1)SCCNC3=O` [kmg-NB5-15A, 4-Hydroxy-2-methoxy-7H,8H,9H-1,4-thiazepino[7′,6′-5,4]thiopheno[3,2-d]pyrimidin-6-one], for which the melting point is 295 °C (dec.). Moreover, the “inhibitory activity against PKD (in words)” value in series [2] is “absence of inhibitory activity”.

Take `O=C1NCCSc2c1sc1cnc(O)nc21` (as salt: hydrochloride) [kmg-NB4-69A, 2-Hydroxy-7H,8H,9H-1,4-thiazepino[7′,6′-5,4]thiopheno[3,2-d]pyrimidin-6-one]: the melting point was 335.9 °C (dec.).

As to `O=C(CCl)Nc1ccc2sc3c(c2c1)SCCNC3=O` [mcf292-09, 3,4-Dihydro-9-(2-chloroacetamido)-[1]benzothieno[2,3-f]-1,4-thiazepin-5(2H)-one], the melting point is 229 to 230 °C (dec.). Also, the IC50 in series [2] (setting [3]) was found to be 1.5 µM.
